Key:
[1] = tested on: EGFR-mutant NSCLC PC-9 cells; experiment: Apoptosis (caspase 3/7, IncuCyte) in combination with EGFR inhibitor; format: cell-based; details: apoptotic index
Procedure: Apoptosis was detected by CellEvent Caspase 3/7 Green ReadyProbes Reagent (ThermoFisher), a fluorogenic indicator of activated caspase-3/7. Cell death (apoptsis) and cell growth (phase confluence) over time were captured by IncuCyte live cell imaging system (Essen Bioscience) and quantified by IncuCyte S3 software (Essen Bioscience). Apoptotic Index was calculated by dividing apoptosis signal with phase confluence.

NCI-H226 = experiment: 72H TEAD Proliferation Assay (Cell Titer Glo 2.0); format: cell-based; details: Homo sapiens, NCI-H226, 72 h, CTG 2.0, cell line not given (NCI-H226 responsive, NCI-H28 non-responsive)
Method in brief: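 Growth read-out is ATP luminescence (CellTiter-Glo 2.0) after 72 h compound exposure, corrected for no-CTG background and day-0 values, with GI50 from nonlinear regression. Sensitive line NCI-H226 (NF2-deficient); non-responsive NCI-H28 (NF2 wild type) distinguishes TEAD-driven from nonspecific growth inhibition.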

SMILES | GI50 (NCI-H226) [nM] | other results
C=CC(=O)Nc1cc(Nc2nccc(-c3cn(C)c4ccccc34)n2)c(OC)cc1N(C)CCN(C)C [Osimertinib, reference compound] |  | Fold Change over DMSO at 48 hrs ([1]; Osimertinib (100 nM) alone): 2.6
CC(C)(C)c1ccc(-c2nc3cc(C(=O)O)ccc3n3cccc23)cc1 [I-41, 4-(4-(tert-butyl)phenyl)pyrrolo[1,2-a]quinoxaline-7-carboxylic acid] | ≤ 1000 | Fold Change over DMSO at 48 hrs ([1]; I-41 (10 μM) alone): 1.1; Fold Change over DMSO at 48 hrs ([1]; Osimertinib (100 nM) + I-41 (0.37 μM)): 4.3; Fold Change over DMSO at 48 hrs ([1]; Osimertinib (100 nM) + I-41 (1.1 μM)): 4.9; Fold Change over DMSO at 48 hrs ([1]; Osimertinib (100 nM) + I-41 (10 μM)): 5.5
COCC(C)OC(=O)N1CCc2c(cccc2-c2ccc(C(F)(F)F)cc2)C1 (centres unmarked) [I-79, 1-Methoxypropan-2-yl 5-(4-(trifluoromethyl)phenyl)-3,4-dihydroisoquinoline-2(1H)-carboxylate] | 1000 to 5000 | 
COc1cc(N2CCC(C(F)(F)F)CC2)nc2cc(C(=O)N[C@H](C)CO)ccc12 [I-328, (R)—N-(1-hydroxypropan-2-yl)-4-methoxy-2-(4-(trifluoromethyl)piperidin-1-yl)quinoline-7-carboxamide] | 1000 to 5000 | 
O=C(O)c1ccc2c(c1)nc(N1CCC3(CC1)CC3)c1cccn12 [I-4, 4-(6-Azaspiro[2.5]octan-6-yl)pyrrolo[1,2-a]quinoxaline-7-carboxylic acid] | ≤ 1000 | 
CN(C#N)Cc1cn2ccnc2c(-c2ccc(C(F)(F)F)cc2)n1 [I-239, N-methyl-N-((8-(4-(trifluoromethyl)phenyl)imidazo[1,2-a]pyrazin-6-yl)methyl)cyanamide] | 1000 to 5000 | 
Cc1cc(-c2ccc(C(F)(F)F)cc2)nc2cc(C(=O)N[C@@H](C)c3cccc(O)c3)ccc12 [I-269, (S)—N-(1-(3-hydroxyphenyl)ethyl)-4-methyl-2-(4-(trifluoromethyl)phenyl)quinoline-7-carboxamide] | ≤ 1000 | 
CC[C@H](CO)NC(=O)c1ccc2c(OC)cc(-c3ccc(C(F)(F)F)cc3Cl)nc2c1 [I-341, (R)-2-(2-chloro-4-(trifluoromethyl)phenyl)-N-(1-hydroxybutan-2-yl)-4-methoxyquinoline-7-carboxamide] | ≤ 1000 | 

Now from value to compound, other results behind:

GI50 (NCI-H226) [nM] | SMILES | other results
≤ 1000 | C=CC(=O)NCc1cn2ccnc2c(N(C)Cc2ccc(C(F)(F)F)cc2)n1 [I-300, N-((8-(methyl(4-(trifluoromethyl)benzyl)amino)imidazo[1,2-a]pyrazin-6-yl)methyl)acrylamide] | 
≤ 1000 | C=CC(=O)NC(C)(CO)c1cn2ccnc2c(-c2ccc(C(F)(F)F)cc2)n1 (centres unmarked) [I-251, N-(1-hydroxy-2-(8-(4-(trifluoromethyl)phenyl)imidazo[1,2-a]pyrazin-6-yl)propan-2-yl)acrylamide] | 
≤ 1000 | COc1cc(-c2ccc(C(F)(F)F)cc2)nc2cc(C(=O)N[C@@H](C)c3cccc(N)c3)ccc12 [I-350, (S)—N-(1-(3-aminophenyl)ethyl)-4-methoxy-2-(4-(trifluoromethyl)phenyl)quinoline-7-carboxamide] | 
≤ 1000 | COc1cc(-c2ccc(C(F)(F)F)cc2)nc2cc(C(=O)N[C@@H](CO)C(C)C)ccc12 [I-343, (R)—N-(1-hydroxy-3-methylbutan-2-yl)-4-methoxy-2-(4-(trifluoromethyl)phenyl)quinoline-7-carboxamide] | 
1000 to 5000 | CNS(=O)(=O)c1ccc2c(c1)nc(-c1ccc(C(C)(C)C)cc1)c1cccn12 [I-310, 4-(4-(tert-butyl)phenyl)-N-methylpyrrolo[1,2-a]quinoxaline-7-sulfonamide] | 

Source: US12655150B2 (Cedilla Therapeutics, Inc., priority 2021, dated 2026)
